Experimental data: patent publication US5192784A, “Etanidazole injectable solution” (Du Pont Merck Pharmaceutical Company, priority 1992, dated 1993)
Values after ≈ are worked out from the molar mass of the structure shown. Where two headings read alike, the source gives them in different places.

Key:
Type in all cases: physicochemical
[1] = Effects of additives on apparent solubility / crystallization of etanidazole solutions; settings: for time to formation of crystalline material: excess or 150 mg/ml
Procedure: The effects of additives on the apparent solubility of etanidazole were evaluated. […] Possible effects of additives are to inhibit the crystallization of etanidazole hydrate and to solubilize etanidazole hydrate.
Solutions were mixed by rotating end-to-end for 72 hours at room temperature. […] These were placed in 4° C. storage. […] In the case of solutions containing 1% ethanolamine or 0.1% diethanolamine as additives and excess or 150 mg/ml etanidazole, crystalline material had found within 24 hours at room temperature, but the 50 mg/ml and 100 mg/ml solutions remained clear at room temperature for 72 hours. These samples were placed at 4° C. […] After 2 months at 4° C., 1 of the 3 vials remained free of crystals. The 50 mg/ml etanidazole solution with 0.1% diethanolamine remained clear for at least 2 months at 4° C.

[2] = Effect of ionic strength on rate of decomposition in 0.1M acetate, pH 5.0, 80° C.
Procedure: The k values shown in Tables 1-5 and FIG. 1 should be multipled by a factor of 2.303 to provide the actual k value.
The chemical stability of etanidazole was evaluated in solutions of varying composition stored at 80° C. Etanidazole was placed into suitable containers and sufficient buffer was added to result in a 1 mg/ml solution. A constant ionic strength of 0.3 was maintained with potassium chloride. All solutions were prepared in triplicate. The solution was divided into 2 ml sealed glass vials and was placed into cardboard storage boxes to protect the compound from light. At appropriate intervals, samples were removed from the stability chamber and cooled to room temperature. An aliquot of the sample was diluted with mobile phase containing internal standard prior to HPLC analysis. For those pH conditions where degradation was rapid, the sample aliquot was immediately quenched to neutral pH and room temperature.
Data were analyzed using methods as described by Martin et al. in "Physical Pharmacy", 3rd ed, pp 352-395 (1983).
The impact of the ionic strength of the buffer system on the rate of decomposition was examined in 0.1M acetate, pH 5.0, at 80° C. Ionic strengths of 0.15, 0.30 and 0.60 were employed.

[3] = Equilibrium solubility of etanidazole in 0.05M acetate or citrate buffers at pH 4.0 with additives; settings: for solubility: mean ± SD, read-out: Solubility at 4° C.
Procedure: Equilibrium solubility of etanidazole in 0.05M acetate or citrate buffers at pH 4.0 and the effects of additives were determined.

[4] = Crystal formation on storage at 4° C., autoclaved vs non-autoclaved (reheated samples)
Procedure: Sixteen samples of etanidazole solutions at various pHs, which contained crystals, were heated in a 56° C. water bath for 1 hour to dissolve the crystals. After heating, the samples were divided evenly.

## O=C(Cn1ccnc1[N+](=O)[O-])NCCO [Etanidazole]
[1]; 0.1% diethanolamine, 50 mg/ml, 4° C.
  time solution remained clear: at least 2 months
[1]; 0.1% diethanolamine, 50 mg/ml, room temperature
  time solution remained clear: 72 h
[1]; 0.1% diethanolamine, 100 mg/ml, 4° C., after 2 months
  vials that remained free of crystals: 1 of the 3
[1]; 0.1% diethanolamine, 100 mg/ml, 4° C., within 24 hours
  vials showing crystallization: 1 of 3
[1]; 0.1% diethanolamine, 100 mg/ml, room temperature
  time solution remained clear: 72 h
[1]; 0.1% diethanolamine, room temperature
  time to formation of crystalline material: ≤ 24 h
[1]; 1% ethanolamine, 50 mg/ml, 4° C.
  time solution remained clear: at least 1 month
[1]; 1% ethanolamine, 50 mg/ml, room temperature
  time solution remained clear: 72 h
[1]; 1% ethanolamine, 100 mg/ml, 4° C.
  time to crystallization: ≤ 24 h
[1]; 1% ethanolamine, 100 mg/ml, room temperature
  time solution remained clear: 72 h
[1]; 1% ethanolamine, room temperature
  time to formation of crystalline material: ≤ 24 h
[1]; 1% imidazole and excess etanidazole, 72 hours, room temperature
  solid form of excess solid: appeared to have been converted to etanidazole hydrate
[1]; 1% imidazole, 50 mg/ml, 4° C. (up to)
  time solution remained clear: up to 1 month
[1]; 1% imidazole, 100 mg/ml, 4° C. (up to)
  time solution remained clear: up to 1 month
[1]; 1% imidazole, 150 mg/ml, 4° C.
  time to crystal formation: ≤ 2 h
[1]; 1% imidazole, up to 150 mg/ml etanidazole, room temperature, 72 hours
  appearance of solution: remained clear and free of particulates
[1]; imidazole, ethanolamine, diethanolamine, room temperature or 4° C.
  effect of additives on etanidazole solutions: these additives stabilize etanidazole solutions, inhibiting crystal formation
[2]; 0.15, 0.30 and 0.60, 0.1M acetate pH 5.0, 80° C.
  effect of ionic strength on degradation rate: negligible effect on the degradation rate
[2]; ionic strength 0.15, 0.1M acetate pH 5.0, 80° C.
  kobs, observed first-order rate constant: 0.0059 ± 0.000108 day⁻¹
[2]; ionic strength 0.30, 0.1M acetate pH 5.0, 80° C.
  kobs, observed first-order rate constant: 0.00516 ± 0.000104 day⁻¹
[2]; ionic strength 0.60, 0.1M acetate pH 5.0, 80° C.
  kobs, observed first-order rate constant: 0.00518 ± 0.000306 day⁻¹
[3]; 0.05m acetate buffer, aqueous buffer, acetate 0.05M pH 4.0, no additive
  solubility: 83.4 ± 26.3 mg/mL (≈ 389 mM)
[3]; 0.05m acetate buffer, acetate 0.05M pH 4.0, 0.065% Imidazole
  solubility: 64.8 ± 32.1 mg/mL (≈ 303 mM)
[3]; 0.05m acetate buffer, acetate 0.05M pH 4.0, 0.13% Ethylenediamine
  solubility: 54.8 ± 30.9 mg/mL (≈ 256 mM)
[3]; 0.05m citrate buffer, aqueous buffer, citrate 0.05M pH 4.0, no additive
  solubility: 36.6 ± 6.4 mg/mL (≈ 171 mM)
[3]; 0.05m citrate buffer, citrate 0.05M pH 4.0, 0.065% Imidazole
  solubility: 95.4 ± 3.7 mg/mL (≈ 445 mM)
[3]; 0.05m citrate buffer, citrate 0.05M pH 4.0, 0.13% Ethylenediamine
  solubility: 61.5 ± 33.9 mg/mL (≈ 287 mM)
[3]; citrate buffer, pH 4.0, 4° C.
  effect of imidazole on etanidazole solubility: Imidazole increased etanidazole solubility in citrate buffer
[4]; 50 mg/ml, aqueous buffer, 4° C.
  crystalline particulates on storage: occasionally develop crystalline particulates
[4]; various pHs, heated 56° C. 1 hour, then 4 days at 4° C.
  non-autoclaved samples containing crystals again: 3 of 8
